Assay results published in patent publication US8987245B2, “Composition and method for affecting obesity and related conditions” (priority 2008, dated 2015).
“Also recorded” adds a separate entry of the source.

Key:
[1] = test system: diet-induced mouse model of obesity; assay: Experiment I: diet-induced mouse model of obesity, body weight, fat pad weights, caloric intake; format: in vivo, male C57BL/6J mice
Excerpt: The following experiment involved a diet-induced mouse model of obesity. In particular, male C57BL/6J mice (these wildtype mice are genetically distinct from ob/ob and db/db mice and are not leptin-deficient) were placed on a high fat diet (HFD) or control diet (CON) at 8 wks of age, and MnTBAP or vehicle administration was initiated 5 months later, when all mice were at a steady state body weight. Mice receiving the CON diet served as lean control animals to those receiving the HFD diet. Each of the CON and HFD mice groups were then further divided into two groups. One of the CON and HFD groups was treated with 10 mg MnTBAP/kg of body weight for 30 days, and the other groups received a vehicle for 30 days. The term “vehicle” refers to the solvent used to deliver MnTBAP. In this experiment, MnTBAP was dissolved in 2% bicarbonate (pH 8.0) to a final concentration of 2 mg/mL. Vehicle-treated mice received a volume of vehicle that would have been sufficient to deliver 10 mg of MnTBAP per kg of body weight were the compound present. MnTBAP was purchased from A.G. Scientific Inc., San Diego, Calif. […] The above-identified doses of MnTBAP and vehicle were administered to the mice as daily intraperitoneal injections.
At the start of the treatment, there were no significant differences in body weight between MnTBAP and vehicle groups within each diet (CON: p=0.99; HFD: p=0.77). In addition, HFD mice were dramatically heavier than CON mice at the start of treatment (p<0.001).
Before and after treatment, insulin sensitivity (IS) was assessed using an insulin-assisted glucose tolerance test (IA-GTT) after a 16-hour fast. Fasting body weights were measured at the end of each fast just prior to initiation of the IA-GTT. Approximately 5-7 days after the post-treatment IA-GTT, mice were stimulated with insulin ten minutes prior to delivery of an anesthetic cocktail to induce deep anesthesia for harvesting of quadriceps, tibialis anterior, soleus, gastrocnemius, subcutaneous white adipose tissue (SWAT), epididymal white adipose tissue (EWAT), and liver. In addition, SWAT and EWAT weights were measured immediately after harvest. Tissues were snap frozen in liquid nitrogen and stored at −80° C. until analysis. One quadriceps muscle from each mouse was homogenized for biochemical analyses.
Fasting body weights; fed-state body weights; and plasma glucose levels at various times during the IA-GTT, a test used to assess insulin sensitivity, were compared after treatment using a 2×2 analysis of variance (ANOVA) with repeated measures. Here “repeated measures” refers to the time of glucose measurement during the IA-GTT: 0, 15, 30, 45, 60 min. Subcutaneous white adipose tissue weights; epididymal white tissue adipose weights; caloric consumption; and all biochemical data, such as UCP-2, UCP-3, and PKB expression, were compared using a 2×2 ANOVA without repeated measures.

[2] = test system: diet-induced mouse model of obesity; assay: Experiment I: insulin-assisted glucose tolerance test (IA-GTT), insulin sensitivity; format: in vivo, male C57BL/6J mice; settings: HFD mice, 10 mg/kg daily, after 16-hour fast
Excerpt: (§1) The following experiment involved a diet-induced mouse model of obesity. In particular, male C57BL/6J mice (these wildtype mice are genetically distinct from ob/ob and db/db mice and are not leptin-deficient) were placed on a high fat diet (HFD) or control diet (CON) at 8 wks of age, and MnTBAP or vehicle administration was initiated 5 months later, when all mice were at a steady state body weight. Mice receiving the CON diet served as lean control animals to those receiving the HFD diet. Each of the CON and HFD mice groups were then further divided into two groups. One of the CON and HFD groups was treated with 10 mg MnTBAP/kg of body weight for 30 days, and the other groups received a vehicle for 30 days. The term “vehicle” refers to the solvent used to deliver MnTBAP. In this experiment, MnTBAP was dissolved in 2% bicarbonate (pH 8.0) to a final concentration of 2 mg/mL. Vehicle-treated mice received a volume of vehicle that would have been sufficient to deliver 10 mg of MnTBAP per kg of body weight were the compound present. […]
(§2) Before and after treatment, insulin sensitivity (IS) was assessed using an insulin-assisted glucose tolerance test (IA-GTT) after a 16-hour fast. Fasting body weights were measured at the end of each fast just prior to initiation of the IA-GTT. […] In addition, SWAT and EWAT weights were measured immediately after harvest. […]

[3] = test system: uncoupling protein-3 (UCP3); assay: Experiment I: UCP3 expression in skeletal muscle (quadriceps); format: in vivo, male C57BL/6J mice
Excerpt: as §1, §2

protein kinase B (PKB) = assay: Experiment I: PKB activity and expression in skeletal muscle (quadriceps); format: in vivo, male C57BL/6J mice
Excerpt: The following experiment involved a diet-induced mouse model of obesity. In particular, male C57BL/6J mice (these wildtype mice are genetically distinct from ob/ob and db/db mice and are not leptin-deficient) were placed on a high fat diet (HFD) or control diet (CON) at 8 wks of age, and MnTBAP or vehicle administration was initiated 5 months later, when all mice were at a steady state body weight. Mice receiving the CON diet served as lean control animals to those receiving the HFD diet. Each of the CON and HFD mice groups were then further divided into two groups. One of the CON and HFD groups was treated with 10 mg MnTBAP/kg of body weight for 30 days, and the other groups received a vehicle for 30 days. […]
as §2
In addition to affecting weight loss, MnTBAP has been shown by the above experiment to increase insulin sensitivity. […] It is noted that HFD mice were very insulin resistant before treatment (p<0.001), but a main effect for diet after treatment (p=0.3) was not detected, a result that underscores MnTBAP's effect on insulin action.

[4] = test system: diet-induced mouse model of obesity; assay: Experiment II: diet-induced mouse model of obesity, food intake and body weight; format: in vivo, male C57BL/6J mice; settings: 10 mg/kg for 36 days
Excerpt: The following experiment involved a diet-induced mouse model of obesity. In particular, male C57BL/6J mice (these wildtype mice are genetically distinct from ob/ob and db/db mice and are not leptin-deficient) were placed on a high fat diet (HFD) or control diet (CON) at 8 wks of age, and MnTBAP or vehicle administration was initiated 6 months later, when all mice were at a steady state body weight. Mice receiving the CON diet served as lean control animals to those receiving the HFD. Each of the CON and HFD mice groups were then further divided into two groups. One of the CON and HFD groups was treated with 10 mg MnTBAP/kg of body weight for 36 days, and the other groups received a vehicle for 36 days. Food intake was measured on days 0, 3, 9, 14 and 35 post-treatment.

[5] = cited from earlier work
[6] = many in ob/ob mice, younger mice; cited from earlier work
[7] = both CON and HFD mice, 10 mg/kg daily i.p. for 30 days
[8] = HFD mice, quadriceps, 10 mg/kg daily for four weeks

Compound: O=C(O)c1ccc(-c2c3nc(c(-c4ccc(C(=O)O)cc4)c4ccc([n-]4)c(-c4ccc(C(=O)O)cc4)c4nc(c(-c5ccc(C(=O)O)cc5)c5ccc2[n-]5)C=C4)C=C3)cc1.[Mn+3] [MnTBAP, manganese [III] tetrakis (4-benzoic acid) porphyrin]
- share of weight loss due to decreased SWAT and EWAT fat deposits ([1]; 10 mg/kg daily i.p. for 30 days): approximately 50%
- treatment time until significant weight loss, fed state ([1]; CON mice, 10 mg/kg daily i.p.): 27 days
- body weight less than vehicle-treated mice after treatment ([1]; CON mice, 10 mg/kg daily i.p. for 30 days, vs CON vehicle): 12.4%
- treatment time until significant weight loss, fed state ([1]; HFD mice, 10 mg/kg daily i.p.): 15 days
- weight loss after 30 days of treatment ([1]; HFD mice, 10 mg/kg daily i.p.): dramatic weight loss
- body weight less than vehicle-treated mice after treatment ([1]; HFD mice, 10 mg/kg daily i.p. for 30 days, vs HFD vehicle): 18.6%
- EWAT weight compared to vehicle [1, 7]: dramatic reductions
- SWAT weight compared to vehicle [1, 7]: dramatic reductions
- daily caloric intake [1, 7]: without affecting daily caloric intake
- fasting body weight compared to vehicle [1, 7]: dramatic reductions
- fasting body weight after treatment vs before treatment ([1]; both HFD and CON mice, 10 mg/kg daily i.p. for 30 days): lower than before treatment
- insulin sensitivity (IA-GTT) [2]: significantly enhanced insulin sensitivity; also recorded: significantly improved insulin sensitivity
- UCP3 levels ([3]; CON mice, skeletal muscle, 10 mg/kg daily): lack of a significant increase
- UCP3 expression greater than vehicle [3, 8]: ~60%
- PKB expression (protein kinase B (PKB); CON mice, 10 mg/kg daily): A statistically significant increase in PKB expression was not observed
- increase in activity and expression of PKB vs vehicle (protein kinase B (PKB); [8]): ~60%
- body weight and fat mass compared to vehicle-treated controls ([4]; CON mice): lost a significant amount
- food intake vs vehicle ([4]; CON mice, days 0, 3, 9, 14 and 35): did not differ
- decrease in caloric intake over the course of the study ([4]; HFD mice): 16.6%
- food intake compared to vehicle-treated controls ([4]; HFD mice): markedly decreased food intake
- adverse side effects ([5]; doses up to 10 mg/kg of body weight): no known adverse side effects
- mortality rates and age of death ([5]; mice, up to a dose of 88 mg/kg of body weight): does not increase mortality rates or decrease age of death
- body weight change in known studies [6]: either no change in weight or slowed weight gain but did not induce weight loss
